# Molecular target: T1, CCR9 (Homo sapiens, UniProt P51686)
# T1 construct: chemokine expressing cells (such as THP-1 cells for CCR2 assay or MOLT-4 cells for CCR9 assay); host or cells: MOLT-4
# T1 sequence (P51686 1-369): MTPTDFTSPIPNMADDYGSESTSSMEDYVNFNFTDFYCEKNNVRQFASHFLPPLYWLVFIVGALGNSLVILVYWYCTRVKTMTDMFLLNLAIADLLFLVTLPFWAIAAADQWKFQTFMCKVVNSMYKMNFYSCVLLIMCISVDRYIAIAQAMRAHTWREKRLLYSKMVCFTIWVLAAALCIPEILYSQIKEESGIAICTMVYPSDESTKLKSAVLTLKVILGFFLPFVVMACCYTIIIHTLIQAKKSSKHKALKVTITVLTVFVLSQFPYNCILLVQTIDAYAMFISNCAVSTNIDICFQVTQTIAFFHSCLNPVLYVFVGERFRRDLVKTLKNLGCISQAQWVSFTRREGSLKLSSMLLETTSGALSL
# Assay: CCR9 activity in one of the chemotaxis, binding or calcium mobilization assays
# Type: cell-based
# Conditions: binding or calcium mobilization assays (MOLT-4 cells, TECK)
# Protocol: THP-1 cells and MOLT-4 cells were obtained from the American Type Culture Collection (Manassas, Va.) and cultured in RPMI tissue culture medium supplemented with 10% fetal calf serum (FCS) in a humidified 5% CO2 incubator at 37° C. Recombinant human chemokine proteins MCP-1 and TECK were obtained from R&D Systems (Minneapolis, Minn.). ^125I-labeled MCP-1 protein was obtained from Amersham (Piscataway, N.J.). ChemoTX® chemotaxis microchambers were purchased from Neuro Probe (Gaithersburg, Md.). CyQUANT® cell proliferation kits were purchased from Molecular Probes (Eugene, Oreg.). Calcium indicator dye Fluo-4 AM was purchased from Molecular Devices (Mountain View, Calif.).
# Conventional migration assay was used to determine the efficacy of potential receptor antagonists in blocking migration mediated through chemokines (such as CCR2 or CCR9). This assay was routinely performed using the ChemoTX® microchamber system with a 5-μm pore-sized polycarbonate membrane. To begin such an assay, chemokine expressing cells (such as THP-1 cells for CCR2 assay or MOLT-4 cells for CCR9 assay) were harvested by centrifugation of cell suspension at 1000 RPM on a GS-6R Beckman centrifuge. The cell pellet was resuspended in chemotaxis buffer (HBSS with 0.1% BSA) at 10×10^6 cells/mL for CCR2 assay (5×10^6 cells/mL for CCR9 assay). Test compounds at desired concentrations were prepared from 10 mM stock solutions by serial dilutions in chemotaxis buffer. An equal volume of cells and compounds were mixed and incubated at room temperature for 15 minutes. Afterwards, 20 μL of the mixture was transferred onto the porous membrane of a migration microchamber, with 29 μL of chemokine ligand (0.1 nM chemokine MCP-1 protein for CCR2 assay or […] chemokine TECK protein for CCR9 assay) placed at the lower chamber. Following an incubation at 37° C. (90-minute for CCR2; 150-minute for CCR9), during which cells migrated […] the chemokine gradient, the assay was terminated by removing the cell drops from atop the filter. To quantify cells migrated across the membrane, 5 μL of 7× CyQUANT® solution was added to each well in the lower chamber, and the fluorescence signal measured on a Spectrafluor Plus fluorescence plate reader (TECAN, Durham, N.C.). The degree of inhibition was determined by comparing migration signals between compound-treated and untreated cells. IC50 calculation was further performed by non-linear squares regression analysis using Graphpad Prism (Graphpad Software, San Diego, Calif.).
# Calcium flux assay measures an increase in intracellular calcium following ligand-induced receptor activation. In the screen of chemokine antagonists, it was used as a secondary assay carried out on a FLIPR® machine (Molecular Devices, Mountain View, Calif.). To begin an assay, chemokine expressing cells (such as THP-1 cells for CCR2 assay or MOLT-4 cells for CCR9 assay) were harvested by centrifugation of cell suspension, and resuspended to 1.5×10^6 cells/mL in HBSS (with 1% fetal calf serum). Cells were then labeled with a calcium indicator dye Fluo-4 AM for 45 minutes at 37° C. with gentle shaking. Following incubation, cells were pelletted, washed once with HBSS and resuspended in the same buffer at a density of 1.6×10^6 cells/mL. One hundred microliters of labeled cells were mixed with 10 μL of test compound at the appropriate concentrations on an assay plate. Chemokine protein (MCP-1 at a final concentration of 0.1 nM for CCR2 assay or TECK at a final concentration of 25 nM for CCR9 assay) to activate the receptor. The degree of inhibition was determined by comparing calcium signals between compound-treated and untreated cells. IC50 calculations were further performed by non-linear squares regression analysis using Graphpad Prism (Graphpad Software, San Diego, Calif.).
row,Compound,IC50 [nM]
1,CC(C)(C)c1ccc(S(=O)(=O)Nc2cc(Cl)cnc2-c2nncn2-c2ccccc2F)cc1,< 1000
2,COCc1nnc(-c2ncc(Cl)cc2NS(=O)(=O)c2ccc(C(C)(C)C)cc2)n1C(C)C,< 1000
3,Cn1c(-c2ncc(Cl)cc2NS(=O)(=O)c2ccc(C(C)(C)C)cc2)nnc1C1CCCN1 (centres unmarked),< 1000
4,Cn1cnnc1-c1ncc(Cl)cc1NS(=O)(=O)c1ccc(C(C)(C)C)cc1,< 1000
5,Cn1c(-c2cccnc2)nnc1-c1ncc(Cl)cc1NS(=O)(=O)c1ccc(C(C)(C)C)cc1,< 1000
6,CC(C)(C)c1ccc(S(=O)(=O)Nc2cc(Cl)cnc2-c2nncn2[C@H]2CCNC2)cc1,< 1000
7,Cc1nnc(-c2ncc(Cl)cc2NS(=O)(=O)c2ccc(C(C)(C)C)cc2)n1C1CC1,< 1000
8,Cc1nnc(-c2ncc(Cl)cc2NS(=O)(=O)c2ccc(C(C)(C)C)cc2)n1C,< 1000
9,CCn1c(COC)nnc1-c1ncc(Cl)cc1NS(=O)(=O)c1ccc(C(C)(C)C)cc1,< 1000
10,CCOC(=O)c1nnc(-c2ncc(Cl)cc2NS(=O)(=O)c2ccc(C(C)(C)C)cc2)n1C(C)C,< 1000
11,CC(C)n1c(-c2ncc(Cl)cc2NS(=O)(=O)c2ccc(C(C)(C)C)cc2)nnc1C(C)(C)O,< 1000
12,Cc1nnc(-c2ncc(Cl)cc2NS(=O)(=O)c2ccc(C(C)(C)C)cc2)n1C(C)C,< 1000
13,CCn1cnnc1-c1ncc(Cl)cc1NS(=O)(=O)c1ccc(C(C)(C)C)cc1,< 1000
14,Cc1cnc(-c2nncn2C2CCN(C)C2)c(NS(=O)(=O)c2ccc(C(C)(C)C)cc2)c1 (centres unmarked),< 1000
15,CC(C)n1cnnc1-c1ncc(Cl)cc1NS(=O)(=O)c1ccc(C(C)(C)C)cc1,< 1000
16,COCc1nnc(-c2ncc(Cl)cc2NS(=O)(=O)c2ccc(C(C)(C)C)cc2)n1C1CCOCC1,< 1000
17,Cn1c(-c2ncc(Cl)cc2NS(=O)(=O)c2ccc(C(C)(C)C)cc2)nnc1C1CCNCC1,< 1000
18,CC(C)(C)c1ccc(S(=O)(=O)Nc2cc(Cl)cnc2-c2nncn2-c2ccccc2)cc1,< 1000

# Second part, the molecule after the results:
row,IC50 [nM],Compound
1,< 1000,Cn1c(-c2ccno2)nnc1-c1ncc(Cl)cc1NS(=O)(=O)c1ccc(C(C)(C)C)cc1
2,< 1000,CC(C)(C)c1ccc(S(=O)(=O)Nc2cc(Cl)cnc2-c2nnc3n2CCNC3)cc1
3,< 1000,CC(=O)Nc1nnc(-c2ncc(Cl)cc2NS(=O)(=O)c2ccc(C(C)(C)C)cc2)n1C(C)C
4,< 1000,Cc1cnc(-c2nncn2C2CCN(C(=O)OC(C)(C)C)C2)c(NS(=O)(=O)c2ccc(C(C)(C)C)cc2)c1 (centres unmarked)
5,< 1000,CC(C)(C)c1ccc(S(=O)(=O)Nc2cc(Cl)cnc2-c2nncn2[C@H]2CCCNC2)cc1
6,< 1000,CC(C)n1c(N)nnc1-c1ncc(Cl)cc1NS(=O)(=O)c1ccc(C(C)(C)C)cc1
7,< 1000,CC(C)(C)c1ccc(S(=O)(=O)Nc2cc(Cl)cnc2-c2nnc3n2CCOC3)cc1
8,< 1000,CCn1c(C)nnc1-c1ncc(Cl)cc1NS(=O)(=O)c1ccc(C(C)(C)C)cc1
9,< 1000,Cc1cnc(-c2nncn2C2CCNC2)c(NS(=O)(=O)c2ccc(C(C)(C)C)cc2)c1 (centres unmarked)
10,< 1000,COCc1nnc(-c2ncc(Cl)cc2NS(=O)(=O)c2ccc(C(C)(C)C)cc2)n1C
11,< 1000,CC(C)c1nnc(-c2ncc(Cl)cc2NS(=O)(=O)c2ccc(C(C)(C)C)cc2)n1C
12,< 1000,CC(C)n1c(C(=O)N(C)C)nnc1-c1ncc(Cl)cc1NS(=O)(=O)c1ccc(C(C)(C)C)cc1
13,< 1000,CNC(=O)c1nnc(-c2ncc(Cl)cc2NS(=O)(=O)c2ccc(C(C)(C)C)cc2)n1C(C)C
14,< 1000,Cn1c(-c2ccncc2)nnc1-c1ncc(Cl)cc1NS(=O)(=O)c1ccc(C(C)(C)C)cc1

# Reference: patent US7683176B2, “Triazolyl pyridyl benzenesulfonamides” (ChemoCentryx, Inc., priority 2006, dated 2010)
